Data published in paper PMC7914897, “Cytotoxic Potential of a-Azepano- and 3-Amino-3,4-SeCo-Triterpenoids” (International Journal of Molecular Sciences, 2021).
Where two headings read alike, the source gives them in different places.

Columns and labels:
[1] = system: A2780 (ovarian carcinoma); test: SRB cytotoxicity assay, 72 h; assay type: cell-based, human; settings: Homo sapiens; A2780, 72 h, cut-off 30 µM; read-out: EC50
In short: (§1)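 Cells seeded, treated 24 h later with serial dilutions (0–30 µM; DMSO ≤0.5%) for 72 h. TCA-fixed, SRB-stained, absorbance read at 570 nm; survival relative to untreated controls gives EC50.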

[2] = system: A375 (malignant melanoma); test: SRB cytotoxicity assay, 72 h; assay type: cell-based, human; settings: Homo sapiens, A-375, 72 h, A375, 72 h, cut-off 30 µM; read-out: EC50
In short: as §1

[3] = system: FaDu (hypopharyngeal carcinoma); test: SRB cytotoxicity assay, 72 h; assay type: cell-based, human; settings: Homo sapiens, cut-off 30 µM, read-out: EC50
In short: as §1

[4] = system: HT29 (colorectal carcinoma); test: SRB cytotoxicity assay, 72 h; assay type: cell-based, human; settings: Homo sapiens, HT-29; HT29, 72 h, cut-off 30 µM; read-out: EC50
In short: as §1

[5] = system: MCF-7 (breast carcinoma); test: SRB cytotoxicity assay, 72 h; assay type: cell-based, human; settings: Homo sapiens, MCF7; MCF-7, 72 h, cut-off 30 µM; read-out: EC50
In short: as §1

[6] = system: NIH 3T3 (non-malignant mouse fibroblasts); test: SRB cytotoxicity assay, 72 h; assay type: cell-based; settings: Mus musculus, NIH3T3; NIH 3T3, 72 h, cut-off 30 µM; read-out: EC50
In short: as §1

[7] = system: CNS cancer subpanel; test: NCI-60 screen, subpanel; settings: Homo sapiens
[8] = system: Ovarian Cancer subpanel; test: NCI-60 screen, subpanel; settings: Homo sapiens
[9] = system: A549/ATCC (NSC lung cancer); test: NCI-60 screen (SRB, 48 h); settings: Homo sapiens
[10] = system: NCI-H23 (NSC lung cancer); test: NCI-60 screen (SRB, 48 h); settings: Homo sapiens, NCI-H23
[11] = system: NCI-H322M (NSC lung cancer); test: NCI-60 screen (SRB, 48 h); settings: Homo sapiens
[12] = system: SW-620 (Colon cancer); test: NCI-60 screen (SRB, 48 h); settings: Homo sapiens, SW-620
[13] = system: SF-268 (CNS cancer); test: NCI-60 screen (SRB, 48 h); settings: Homo sapiens
[14] = system: SF-539 (CNS cancer); test: NCI-60 screen (SRB, 48 h); settings: Homo sapiens, SF-539
[15] = system: M14 (Melanoma); test: NCI-60 screen (SRB, 48 h); settings: Homo sapiens
[16] = system: UACC-62 (Melanoma); test: NCI-60 screen (SRB, 48 h); settings: Homo sapiens
[17] = system: OVCAR-8 (Ovarian cancer); test: NCI-60 screen (SRB, 48 h); settings: Homo sapiens
[18] = system: ACHN (Renal cancer); test: NCI-60 screen (SRB, 48 h); settings: Homo sapiens
[19] = system: CAKI-1 (Renal cancer); test: NCI-60 screen (SRB, 48 h); settings: Homo sapiens
[20] = system: SN12C (Renal cancer); test: NCI-60 screen (SRB, 48 h)
[21] = system: TK-10 (Renal cancer); test: NCI-60 screen (SRB, 48 h); settings: Homo sapiens
[22] = system: PC-3 (Prostate cancer); test: NCI-60 screen (SRB, 48 h); settings: Homo sapiens
[23] = system: HS 578T (Breast cancer); test: NCI-60 screen (SRB, 48 h); settings: Homo sapiens
[24] = system: panel of approximately 60 cancer cell lines; test: NCI-60 screen (SRB, 48 h), full panel

C=C(C)[C@@H]1CC[C@]2(COS(=O)(=O)c3ccc(C)cc3)CC[C@]3(C)[C@@H](CC[C@@H]4[C@@]5(C)CCCNC(C)(C)[C@@H]5CC[C@]43C)[C@@H]12 [Compound 12]
EC50 [1]: 1680 ± 100 nM | EC50 [2]: 2030 ± 100 nM | EC50 [3]: 1590 ± 100 nM | EC50 [4]: 1960 ± 300 nM | EC50 [5]: 1630 ± 100 nM | EC50 [6]: 1940 ± 200 nM | IC (TGI) ([7]; 48 h, read-out: TGI MG_MID): 3490 nM | GI50 ([7]; read-out: GI50 MG_MID): 1790 nM | IC (TGI) ([8]; 48 h, read-out: TGI MG_MID): 3370 nM | GI50 ([8]; read-out: GI50 MG_MID): 1790 nM | CC50 ([8]; read-out: LC50 MG_MID): 5820 nM | GI50 ([9]; A549): 1870 nM | IC (TGI) ([9]; A549, 48 h, read-out: TGI): 3500 nM | GI50 [10]: 1750 nM | GI50 [11]: 1760 nM | IC (TGI) ([11]; 48 h, read-out: TGI): 3160 nM | GI50 [12]: 1830 nM | GI50 ([13]; SF-268): 1880 nM | IC (TGI) ([13]; SF-268, 48 h, read-out: TGI): 3790 nM | GI50 [14]: 1700 nM | GI50 ([15]; M14): 1830 nM | IC (TGI) ([15]; M14, 48 h, read-out: TGI): 3300 nM | GI50 ([16]; UACC-62): 2050 nM | IC (TGI) ([16]; UACC-62, 48 h, read-out: TGI): 3640 nM | GI50 ([17]; OVCAR-8): 1910 nM | IC (TGI) ([17]; OVCAR-8, 48 h, read-out: TGI): 3650 nM | GI50 [18]: 1980 nM | IC (TGI) ([18]; 48 h, read-out: TGI): 3450 nM | GI50 ([19]; CAKI-1): 1740 nM | IC (TGI) ([19]; CAKI-1, 48 h, read-out: TGI): 3150 nM | CC50 ([19]; CAKI-1, read-out: LC50): 5710 nM | Growth % of the Most Sensitive Cell Lines ([20]; 1 dose 10 µM): −94.44% | GI50 ([20]; Homo sapiens): 1880 nM | IC (TGI) ([20]; Homo sapiens, 48 h, read-out: TGI): 3370 nM | GI50 ([21]; TK-10): 1660 nM | IC (TGI) ([21]; TK-10, 48 h, read-out: TGI): 3230 nM | GI50 ([22]; PC-3): 1580 nM | IC (TGI) ([22]; PC-3, 48 h, read-out: TGI): 3000 nM | GI50 [23]: 1790 nM | IC (TGI) ([23]; 48 h, read-out: TGI): 3940 nM | Positive Cytostatic Effect (cell lines with percent growth 0 to 50 / total) ([24]; 1 dose 10 µM): 11/60 | number of cancer cell lines the compound was active against ([24]; 1 dose 10 µM): 39 cell lines | activity at 10 µM ([24]; Homo sapiens, 48 h, read-out: Mean Growth, %): -3.21% | activity at 10 µM ([24]; Homo sapiens, 48 h, read-out: Range of Growth, %): -94.4 to 98.7% | IC (TGI) ([24]; Homo sapiens, 48 h, read-out: TGI MG_MID60, average over all cell lines): 3430 nM | GI50 ([24]; Homo sapiens, read-out: GI50 MG_MID60): 1770 nM | GI50 ([24]; Homo sapiens, read-out: GI50 against all human tumor cell lines): < 3000 nM | CC50 ([24]; Homo sapiens, read-out: LC50 MG_MID60, average over all cell lines): 5840 nM
